# Reference: patent EP3349734B1, “USE OF SOLUBLE AND INSOLUBLE FRACTIONS OF A CYCLODEXTRIN POLYMER AND OF MIXTURES THEREOF AS AN EXCIPIENT IN A TABLET” (Université de Lille, priority 2015, dated 2017)
# Columns and labels:
# Format in all cases: physicochemical
# [1] = Tapped density, Carr compressibility index and flow of the powder; conditions: for TAP (Ic^∗): Carr index after 500 taps
# Method: Densité après tassement et indice de compressibilité de la composition compressible.
# L'appareil utilisé est un appareil de tassement (Engelsmann powder tester, PTTD200, Pharma Test Instruments, India) composé d'une éprouvette graduée de 100 mL sur un socle vibrant. Les manipulations ont été réalisées suivant les conditions décrites dans la pharmacopée européenne (1997). Pour chaque poudre, le volume initial avant tassement est mesuré (V0) permettant de calculer la densité p0. Le volume final (Vf) de la poudre est ensuite mesuré après 500 tassements. La densité finale de la poudre après tassement peut ainsi être calculée (pf). On en déduit également l'indice de compressibilité ou Indice de Carr (Ic) donné par la formule suivante : [formula]
# Les poudres ayant un indice de Carr inférieur à 20% présentent un bon écoulement.
# [2] = Phase-solubility diagram of piroxicam with cyclodextrins or soluble polymer fractions; conditions: calculated from slope and So of the solubility diagram
# Method: (§1) Les diagrammes de solubilité de plusieurs principes actifs ont été effectués en présence de cyclodextrines et de fractions solubles de polymères de cyclodextrine mentionnés à l'exemple 1.
# (§2) Des solutions de concentration croissante de cyclodextrines et fractions solubles de polymères de cyclodextrine ont été préparées dans de l'eau ultrapure [0-70 g/L]. 10 mL de chacune des solutions ont été mis en présence d'un excès du principe actif (20 mg) sous agitation pendant 24 heures à température ambiante. Les solutions ont ensuite été filtrées avec une membrane en cellulose et en Nylon (0,45 µm; VWR International, USA) respectivement pour l'Ibuprofène et le Piroxicam. L'ibuprofène a été dosé par HPLC (Shimadzu LC-2010 HT Liquid Chromatography), la phase mobile de l'ibuprofène est un mélange acétonitrile/eau (60:40) avec un pH de 2,25, une colonne C18 a été utilisée. Le piroxicam a été dosé par spectrophotométrie UV-Vis à 356 nm (UV 1800 Shimadzu).
# (§3) La constante de stabilité (K1:1) est utilisée pour comparer l'affinité de principes actifs pour différentes cyclodextrines ou dérivés. La solubilité totale de médicament (St) en solution aqueuse de cyclodextrine sera : [formula]
# (§4) So = solubilité intrinsèque du médicament; [CD]1 = concentration totale en cyclodextrine dans le milieu aqueux
# (§5) Une parcelle de St rapport [CD] t, selon l'équation (1), donnera une ligne droite avec une pente (K 1:1 So / (1 + K 1:1 So)) et une interception (Sint) égale à So. K 1:1 est calculée à partir de la pente et So : [formula]
# [3] = Hygroscopicity: water vapour sorption/desorption isotherm (TGA Q5000 SA, 25°C, up to 98% RH); conditions: up to 98% relative humidity
# Method: Les mesures d'absorption et de désorption d'eau des polymères ont été réalisées à l'aide d'un analyseur thermogravimétrique SA Q5000 de TA Instruments contenant une microbalance dans lequel des creusets contenant l'échantillon et la référence ont été enfermés dans une chambre à humidité et température contrôlées. La température dans le Q5000 SA a été contrôlée par des éléments Peltier. Un gaz sec de N2 (200 mL/min) a été divisé en deux parties, dont une partie a été humidifiée par passage dans une chambre saturée d'eau. L'humidité relative souhaitée (RH) pour les mesures peut ainsi être obtenue par mélange des proportions appropriées (régulées par les contrôleurs de débit massique) de flux sec et humide.
# La mesure de l'isotherme standard est composée d'un certain nombre d'étapes. Premièrement, l'échantillon a été séché à 60°C et 0% d'humidité relative pendant un temps déterminé jusqu'à ce que la variation de poids soit stabilisée à moins de 0,05%. Dans un second temps, la température a été abaissée à 25°C. L'humidité a ensuite été augmentée progressivement (par pas de 2% d'humidité relative) à un maximum de 98% d'humidité relative. La variation de poids de l'échantillon a été stabilisée après chaque étape jusqu'à ce qu'elle soit inférieure à 0,05%. L'isotherme de désorption de l'eau a également été mesurée. […]
# [4] = Tablet breaking strength (hardness), 5 mm / 100 mg tablets; conditions: no active ingredient, no other additive
# Source text: La machine à comprimer alternative utilisée était une Korsch (Allemagne) équipé de poinçon plat cylindrique de diamètre 5 mm. Les étapes de compression étaient les suivantes: (1) le remplissage de la matrice par écoulement du mélange, (2) arasage, (3) compression et (4) éjection du comprimé. L'épaisseur moyenne des comprimés est de 3,2 mm.
# Cet essai est destiné à déterminer, dans des conditions définies, la résistance à la rupture des comprimés, mesurée par la force nécessaire pour les rompre par écrasement entre deux mâchoires.
# L'appareil utilisé (PTB 311E, Pharma test Instruments, Inde) est constitué de deux mâchoires se faisant face, dont l'une se déplace vers l'autre qui est fixe. Les surfaces planes des mâchoires sont perpendiculaires à la direction de déplacement.
# Le mode opératoire consistait à mettre en place le comprimé à plat entre les mâchoires, puis, une mâchoire se déplaçait à vitesse constante pour appliquer une force jusqu'à la rupture du comprimé. Cette force maximale est notée et considérée comme la dureté du comprimé. La façon dont un comprimé se fracture quand une force croissante est appliquée varie considérablement selon les diverses caractéristiques des produits.
# [5] = Phase-solubility diagram of ibuprofène with cyclodextrins or soluble polymer fractions; conditions: calculated from slope and So of the solubility diagram
# Method: as §1, §2, §3, §4, §5
# Afin de pouvoir faire une comparaison directe entre cyclodextrine monomère et cyclodextrine polymérisée, les diagrammes de solubilité sont présentés en fonction de la concentration rapportée en gramme de monomère de cyclodextrine par litre. Tableau 3 : Solubilité de l'ibuprofène et constantes de complexation en présence des cyclodextrines ou de fractions solubles de polymères de cyclodextrine à 10 et 50 g/L en cyclodextrine. L'utilisation de cyclodextrines sous forme de monomères ne tombe pas sous l'étendue de la protection revendiquée.
# [6] = Tablet disintegration time in water; conditions: 100 mg tablets
# Method: L'appareil utilisé était un appareil de désintégration manuelle PTZ-S, Pharma Test Instruments (Inde), composé d'un panier porte-tubes, un vase cylindrique bas de 1000 mL destiné à contenir le fluide d'immersion, un agencement thermostatique pour chauffer le fluide entre 35°C et 39°C, et d'un dispositif servant à imprimer au porte-tubes, dans le liquide d'immersion, un mouvement vertical alternatif. Le panier est composé de six tubes transparents verticaux, ouverts à leur extrémité supérieure et fermés à l'extrémité inférieure par une grille, un comprimé était placé dans chacun des six tubes du panier. Le fluide d'immersion était l'eau.
# Le temps de désintégration a été déterminé comme le temps nécessaire pour que les comprimés passent à travers les mailles de la grille.
smiles,measurement,setting,value
"OC[C@H]1O[C@@H]2O[C@H]3[C@H](O)[C@@H](O)[C@@H](O[C@H]4[C@H](O)[C@@H](O)[C@@H](O[C@H]5[C@H](O)[C@@H](O)[C@@H](O[C@H]6[C@H](O)[C@@H](O)[C@@H](O[C@H]7[C@H](O)[C@@H](O)[C@@H](O[C@H]8[C@H](O)[C@@H](O)[C@@H](O[C@H]1[C@H](O)[C@H]2O)O[C@@H]8CO)O[C@@H]7CO)O[C@@H]6CO)O[C@@H]5CO)O[C@@H]4CO)O[C@@H]3CO [βCD, β-cyclodextrine]",TAP (Ic^∗),[1],> 20%
same,TAP (Ic^∗),[1]; listed as CD (monomère),"23,1%"
same,Ecoulement,[1]; powder of βCD polymer fractions,Non Libre
same,Constante de complexation K1:1,[2],173 M⁻¹
same,valeur maximale de prise d'eau,[3],"0,18 g/g"
same,Résistance à la rupture,[4],45-50 N
same,Constante de complexation K1:1,[5],11 M⁻¹
same,Temps de désagrégation,[6],> 30 min
